Laboratory results from the NIST ThermoML archive (doi:10.1021/acs.jced.7b00996).
± gives the expanded uncertainty stated by the source.

Settings: 100 kPa, Liquid; for viscosity: Capillary tube (Ostwald / Ubbelohde) method; for mass density: Vibrating tube method

Row | SMILES | viscosity (288.15 K) [mPa·s] | mass density (288.15 K) [kg/m3] | viscosity (293.15 K) [mPa·s] | mass density (293.15 K) [kg/m3] | viscosity (298.15 K) [mPa·s] | mass density (298.15 K) [kg/m3] | viscosity (303.15 K) [mPa·s] | mass density (303.15 K) [kg/m3] | viscosity (308.15 K) [mPa·s] | mass density (308.15 K) [kg/m3] | viscosity (313.15 K) [mPa·s] | mass density (313.15 K) [kg/m3] | viscosity (318.15 K) [mPa·s] | mass density (318.15 K) [kg/m3] | viscosity (323.15 K) [mPa·s] | mass density (323.15 K) [kg/m3] | viscosity (328.15 K) [mPa·s] | mass density (328.15 K) [kg/m3] | viscosity (333.15 K) [mPa·s] | mass density (333.15 K) [kg/m3] | other results
1 | CCC(C)CO (stereo unspecified) [2-methyl-1-butanol] | 6.451 ± 0.13 | 823.02 ± 0.61 | 5.285 ± 0.11 | 819.56 ± 0.61 | 4.492 ± 0.093 | 815.82 ± 0.61 | 3.813 ± 0.079 | 812.03 ± 0.61 | 3.258 ± 0.068 | 808.2 ± 0.61 | 2.777 ± 0.058 | 804.33 ± 0.61 | 2.375 ± 0.049 | 800.39 ± 0.61 | 2.057 ± 0.043 | 796.39 ± 0.61 | 1.791 ± 0.037 | 792.34 ± 0.61 | 1.573 ± 0.033 | 788.2 ± 0.61 | viscosity (338.15 K): 1.377 ± 0.029 mPa·s; mass density (338.15 K): 783.84 ± 0.61 kg/m3
2 | CCCCCO [pentan-1-ol] | 4.7 ± 0.097 | 818.59 ± 0.61 | 4.045 ± 0.084 | 814.89 ± 0.61 | 3.49 ± 0.072 | 811.23 ± 0.61 | 3.034 ± 0.063 | 807.55 ± 0.61 | 2.674 ± 0.055 | 803.83 ± 0.61 | 2.356 ± 0.049 | 800.08 ± 0.61 | 2.052 ± 0.043 | 796.29 ± 0.61 | 1.811 ± 0.038 | 792.46 ± 0.61 | 1.609 ± 0.033 | 788.56 ± 0.61 | 1.433 ± 0.03 | 784.66 ± 0.61 | viscosity (338.15 K): 1.284 ± 0.027 mPa·s; mass density (338.15 K): 780.7 ± 0.61 kg/m3
3 | CCCC(C)O (stereo unspecified) [pentan-2-ol] | 5.063 ± 0.11 | 813.55 ± 0.61 | 4.172 ± 0.087 | 809.59 ± 0.61 | 3.412 ± 0.071 | 805.55 ± 0.61 | 2.825 ± 0.059 | 801.44 ± 0.61 | 2.34 ± 0.049 | 797.25 ± 0.61 | 1.993 ± 0.041 | 792.98 ± 0.61 | 1.704 ± 0.035 | 788.63 ± 0.61 | 1.475 ± 0.031 | 784.19 ± 0.61 | 1.303 ± 0.027 | 779.67 ± 0.61 | 1.135 ± 0.024 | 775.07 ± 0.61 | viscosity (338.15 K): 1.012 ± 0.021 mPa·s; mass density (338.15 K): 770.37 ± 0.61 kg/m3
